Where “and” joins values, the source holds several entries; their conditions need not be identical. Identical values can stand only once. Inconclusive results and toxic doses are left out.

In this test the test system is CD2F1 mice, L1210 leukemia ip, survival T/C. The experiment in a line: NCI In Vivo Anticancer Drug Screen. Data for tumor model L1210 Leukemia (intraperitoneal) in CD2F1 (CDF1) mice. To be noted: higher = longer survival. Put shortly:
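Antitumor effect is scored in animals hosting a serially transplanted tumor. Values compare compound-dosed animals against vehicle-only controls as a simple quotient.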

Setting [1] is: endpoint: mean survival time, dose: 100.0 mg/kg/injection, schedule: Q01DX009 (ip), vehicle: saline with Tween-80.
Setting [2] is: endpoint: mean survival time, dose: 200.0 mg/kg/injection, schedule: Q01DX009 (ip), vehicle: saline with Tween-80.
[3] abbreviates: endpoint: mean survival time, dose: 100.0 mg/kg/injection, schedule: Q04DX003 (ip), vehicle: saline.
Where [4] appears, read: endpoint: mean survival time, dose: 200.0 mg/kg/injection, schedule: Q04DX003 (ip), vehicle: saline.
The mark [5] stands for this setting: endpoint: mean survival time, dose: 400.0 mg/kg/injection, schedule: Q04DX003 (ip), vehicle: saline.
The mark [6] stands for this setting: endpoint: mean survival time, dose: 400.0 mg/kg/injection, schedule: Q01DX009 (ip), vehicle: saline with Tween-80.
The mark [7] stands for this setting: endpoint: mean survival time, dose: 12.5 mg/kg/injection, schedule: Q04DX002 (ip), vehicle: saline with Tween-80.
[8] abbreviates: endpoint: mean survival time, dose: 25.0 mg/kg/injection, schedule: Q04DX002 (ip), vehicle: saline with Tween-80.
The mark [9] stands for this setting: endpoint: mean survival time, dose: 50.0 mg/kg/injection, schedule: Q04DX002 (ip), vehicle: saline with Tween-80.
[10] abbreviates: endpoint: mean survival time, dose: 100.0 mg/kg/injection, schedule: Q01DX009 (ip), vehicle: saline.
The mark [11] stands for this setting: endpoint: mean survival time, dose: 100.0 mg/kg/injection, schedule: Q04DX003 (ip), vehicle: saline with Tween-80.
[12] abbreviates: endpoint: mean survival time, dose: 200.0 mg/kg/injection, schedule: Q01DX009 (ip), vehicle: saline.
Setting [13] is: endpoint: mean survival time, dose: 200.0 mg/kg/injection, schedule: Q04DX003 (ip), vehicle: saline with Tween-80.
Where [14] appears, read: endpoint: mean survival time, dose: 400.0 mg/kg/injection, schedule: Q04DX003 (ip), vehicle: saline with Tween-80.

`NC(=O)c1ncn(C2OC(CO)C(O)C2O)c1Cl` (centres undefined): the T/C (endpoint: median survival time, dose: 8.0 mg/kg/injection, schedule: Q01DX005 (ip), vehicle: water) was 100 % of control; the T/C (endpoint: median survival time, dose: 16.0 mg/kg/injection, schedule: Q01DX005 (ip), vehicle: water) is 103 % of control; the T/C (endpoint: median survival time, dose: 32.0 mg/kg/injection, schedule: Q01DX005 (ip), vehicle: water) is 100 % of control; the T/C (endpoint: median survival time, dose: 64.0 mg/kg/injection, schedule: Q01DX005 (ip), vehicle: water) is 100 % of control; the T/C (endpoint: median survival time, dose: 128.0 mg/kg/injection, schedule: Q01DX005 (ip), vehicle: water) is 107 % of control.
Turning to `C(=C/C1CCCCC1)/C=C/C1CCCCC1`, the T/C is, setting by setting: (endpoint: mean survival time, dose: 50.0 mg/kg/injection, schedule: Q01DX009 (ip), vehicle: saline with Tween-80) 103 % of control; under setting [1], 92 % of control; under setting [2], 107 % of control.
Turning to `C1CC2CNC1CN2`, the T/C by setting is: under setting [3], 96 % of control; under setting [4], 98 % of control; under setting [5], 94 % of control.
Consider `ClC(Cl)=C(c1ccc(Cl)cc1)c1ccc(Cl)cc1`, for which the T/C is 103 % of control under setting [1], 97 % of control under setting [2] and 101 % of control under setting [6].
`CN(C)/N=N/c1[nH]cnc1C(N)=O.[Cl][Cu][Cl]`: the T/C was 97 % of control (endpoint: mean survival time, dose: 1.56 mg/kg/injection, schedule: Q04DX003 (ip), vehicle: water); 96 % of control (endpoint: mean survival time, dose: 2.0 mg/kg/injection, schedule: Q01DX001 (ip), vehicle: distilled water + Tween-80); 106 % of control (endpoint: mean survival time, dose: 3.13 mg/kg/injection, schedule: Q04DX003 (ip), vehicle: water); 94 % of control (endpoint: mean survival time, dose: 4.0 mg/kg/injection, schedule: Q01DX001 (ip), vehicle: distilled water + Tween-80); 95 % of control (endpoint: mean survival time, dose: 6.25 mg/kg/injection, schedule: Q04DX003 (ip), vehicle: water); 99 % of control (endpoint: mean survival time, dose: 8.0 mg/kg/injection, schedule: Q01DX001 (ip), vehicle: distilled water + Tween-80). The T/C by setting is: (endpoint: mean survival time, dose: 12.5 mg/kg/injection, schedule: Q04DX003 (ip), vehicle: water) 94 % of control; (endpoint: mean survival time, dose: 16.0 mg/kg/injection, schedule: Q01DX001 (ip), vehicle: distilled water + Tween-80) 88 % of control; (endpoint: mean survival time, dose: 32.0 mg/kg/injection, schedule: Q01DX001 (ip), vehicle: distilled water + Tween-80) 92 % of control.
On to `CC1=NCCCN=C(C)C([N+](=O)[O-])C=NC(C)(C)CN=CC1[N+](=O)[O-].[Ni]` (centres undefined), for which the T/C runs as follows: under setting [7], 97 % of control; under setting [8], 97 % of control; under setting [9], 93 % of control.
Consider `CC(=O)OC1CCC2(C)C(=CCC3C2CCC2(C)C(C(=O)CC(O)(C(F)(F)F)C(F)(F)F)CCC32)C1` (centres undefined), for which the T/C is 98 % of control under setting [7], 90 % of control under setting [8] and 94 % of control under setting [9].
`COc1ccc2cc(OC)c(OC)cc2n1`: the T/C (endpoint: mean survival time, dose: 100.0 mg/kg/injection, schedule: Q01DX001 (ip), vehicle: saline with Tween-80) is 96 % of control; the T/C (endpoint: mean survival time, dose: 200.0 mg/kg/injection, schedule: Q01DX001 (ip), vehicle: saline with Tween-80) is 96 % of control; the T/C (endpoint: mean survival time, dose: 400.0 mg/kg/injection, schedule: Q01DX001 (ip), vehicle: saline with Tween-80) was 98 % of control.
With `CCCCCCCCCCCCCCCCCCN=C(N)N`, the T/C was 103 % of control (endpoint: mean survival time, dose: 100.0 mg/kg/injection, schedule: Q01DX001 (ip), vehicle: Klucel (hydroxypropylcellulose) (HPC)); 96 % of control (endpoint: mean survival time, dose: 200.0 mg/kg/injection, schedule: Q01DX001 (ip), vehicle: Klucel (hydroxypropylcellulose) (HPC)); 88 % of control (endpoint: mean survival time, dose: 400.0 mg/kg/injection, schedule: Q01DX001 (ip), vehicle: Klucel (hydroxypropylcellulose) (HPC)).
For the compound `CC1=C2C(=CC(C)(CO)C2O)C(O)C(C)(O)C12CC2` (centres undefined), the T/C is 94 % of control (endpoint: mean survival time, dose: 1.56 mg/kg/injection, schedule: Q01DX005 (ip), vehicle: water); 87 % of control (endpoint: mean survival time, dose: 3.13 mg/kg/injection, schedule: Q01DX005 (ip), vehicle: water); 89 % of control (endpoint: mean survival time, dose: 6.25 mg/kg/injection, schedule: Q01DX005 (ip), vehicle: water); 94 % of control (endpoint: mean survival time, dose: 12.5 mg/kg/injection, schedule: Q01DX005 (ip), vehicle: water); 100 % of control (endpoint: mean survival time, dose: 25.0 mg/kg/injection, schedule: Q01DX005 (ip), vehicle: water).
Consider `C1=NCCN1`, for which the T/C under setting [10] was 106 % of control; the T/C under setting [11] is 97 % of control; the T/C under setting [12] was 89 % of control; the T/C under setting [13] is 97 % of control; the T/C under setting [14] was 90 % of control.
For `NC(CCNCCc1ccccc1)CNCCc1ccccc1` (centres undefined), the T/C is 107 % of control (endpoint: mean survival time, dose: 75.0 mg/kg/injection, schedule: Q01DX001 (ip), vehicle: saline) and 92 % of control (endpoint: mean survival time, dose: 150.0 mg/kg/injection, schedule: Q01DX001 (ip), vehicle: saline).
For the compound `FC(F)(F)COP1(OCC(F)(F)F)=NP(OCC(F)(F)F)(OCC(F)(F)F)=NP(OCC(F)(F)F)(OCC(F)(F)F)=NP(OCC(F)(F)F)(OCC(F)(F)F)=N1`, the T/C is, setting by setting: (endpoint: mean survival time, dose: 50.0 mg/kg/injection, schedule: Q01DX009 (ip), vehicle: saline) 100 % of control; under setting [10], 100 % of control; under setting [3], 97 % of control; under setting [12], 97 % of control; under setting [4], 97 % of control; under setting [5], 105 % of control.
With `NC(=O)c1c[se]c(C2OC(CO)C(O)C2O)n1` (centres undefined), the T/C by setting is: (endpoint: median survival time, dose: 12.5 mg/kg/injection, schedule: Q01DX009 (ip), vehicle: water) 174 % of control and 187 % of control; (endpoint: median survival time, dose: 25.0 mg/kg/injection, schedule: Q01DX009 (ip), vehicle: water) 170 % of control and 193 % of control; (endpoint: median survival time, dose: 50.0 mg/kg/injection, schedule: Q01DX009 (ip), vehicle: water) 206 % of control and 233 % of control; (endpoint: median survival time, dose: 100.0 mg/kg/injection, schedule: Q01DX009 (ip), vehicle: water) 216 % of control and 233 % of control.
Take `CS(=O)(=O)OC1CC(n2ccc(=O)[nH]c2=O)OC1COC(c1ccccc1)(c1ccccc1)c1ccccc1` (centres undefined): the T/C is 98 % of control and 103 % of control (endpoint: median survival time, dose: 12.5 mg/kg/injection, schedule: Q01DX005 (ip), vehicle: saline with Tween-80); 100 % of control and 96 % of control (endpoint: median survival time, dose: 25.0 mg/kg/injection, schedule: Q01DX005 (ip), vehicle: saline with Tween-80); 108 % of control and 94 % of control (endpoint: median survival time, dose: 50.0 mg/kg/injection, schedule: Q01DX005 (ip), vehicle: saline with Tween-80); 100 % of control and 94 % of control (endpoint: median survival time, dose: 100.0 mg/kg/injection, schedule: Q01DX005 (ip), vehicle: saline with Tween-80); 98 % of control and 101 % of control (endpoint: median survival time, dose: 200.0 mg/kg/injection, schedule: Q01DX005 (ip), vehicle: saline with Tween-80).
`CCCCCCCCCCCCCCCCOC(=O)Nc1ccc(S(=O)(=O)N(CCC)CCC)cc1`: the T/C (endpoint: mean survival time, dose: 100.0 mg/kg/injection, schedule: Q01DX001 (ip), vehicle: saline) was 94 % of control; the T/C (endpoint: mean survival time, dose: 200.0 mg/kg/injection, schedule: Q01DX001 (ip), vehicle: saline) was 96 % of control; the T/C (endpoint: mean survival time, dose: 400.0 mg/kg/injection, schedule: Q01DX001 (ip), vehicle: saline) was 92 % of control.
With `Cc1cc(C)nc(N)n1`, the T/C was 95 % of control under setting [11], 98 % of control under setting [13] and 98 % of control under setting [14].
Consider `CC1=NN(c2cccc(S(=O)(=O)O)c2)C(=O)C1`, for which the T/C (endpoint: mean survival time, dose: 100.0 mg/kg/injection, schedule: Q01DX009 (ip), vehicle: saline sonified) was 88 % of control.
For `O=C(c1ccccc1)C(O)(Cc1ccccc1)c1ccccc1` (centres undefined), the T/C was 96 % of control under setting [11], 102 % of control under setting [13] and 97 % of control under setting [14].
Regarding `COC(=O)CC(=O)OCC1C=CCC=C1`, the T/C under setting [1] is 98 % of control, the T/C under setting [2] was 98 % of control and the T/C under setting [6] is 100 % of control.
For the compound `Cc1ccc(S(=O)(=O)OC2(c3cc(C(F)(F)F)cc(C(F)(F)F)c3)C3CCC2CC3)cc1` (centres undefined), the T/C (endpoint: mean survival time, dose: 37.5 mg/kg/injection, schedule: Q04DX002 (ip), vehicle: saline with Tween-80) was 102 % of control; the T/C (endpoint: mean survival time, dose: 75.0 mg/kg/injection, schedule: Q04DX002 (ip), vehicle: saline with Tween-80) is 94 % of control; the T/C (endpoint: mean survival time, dose: 150.0 mg/kg/injection, schedule: Q04DX002 (ip), vehicle: saline with Tween-80) is 98 % of control; the T/C (endpoint: mean survival time, dose: 300.0 mg/kg/injection, schedule: Q04DX002 (ip), vehicle: saline with Tween-80) was 102 % of control.

(Values after PubChem BioAssay AID256 (DTP/NCI, 2004).)
